{"source": "paper PMC5749703", "about": "“Isolation and characterization of a novel metagenomic enzyme capable of degrading bacterial phytotoxin toxoflavin” (PLoS ONE, 2018)", "system": "T1, TxeA", "T1 construct": "no evidence of oligomer", "experiment": "toxoflavin degradation, initial velocities (HPLC)", "type": "biochemical, uncultured bacterium", "settings": "pH 5.0, 20°C; Mn2+, DTT and oxygen required (DTT reduces toxoflavin to dihydrotoxoflavin)", "protocol": "toxoflavin degradation, initial velocities (HPLC) on TxeA | apparent binding constants of substrate (KM) and catalytic efficiency (kcat/KM) for TxeA were determined", "data": [{"smiles": "Cn1ncnc2c(=O)n(C)c(=O)nc1-2", "note": "[toxoflavin, 1,6-dimethylpyrimido[5,4-e]-1,2,4-triazine-5,7(1H,6H)-dione]", "values": [{"measurement": "Km", "result": 14, "unit": "µM"}]}]}
